Results published in ChEMBL document CHEMBL1201862, “PubChem BioAssay data set” (2004).
Calls of active or inactive are those of the source.

What was measured:
[1] = biological target: T1, Rac GTPase-activating protein 1 (Homo sapiens, UniProt Q9H0H5); assay: MgcRacGAP GTPase-activating activity inhibitors, confirmation, biochemical, ADP Hunter fluorescence, primary and confirmatory (AID 624330); type: functional
T1 sequence (Q9H0H5 whole entry): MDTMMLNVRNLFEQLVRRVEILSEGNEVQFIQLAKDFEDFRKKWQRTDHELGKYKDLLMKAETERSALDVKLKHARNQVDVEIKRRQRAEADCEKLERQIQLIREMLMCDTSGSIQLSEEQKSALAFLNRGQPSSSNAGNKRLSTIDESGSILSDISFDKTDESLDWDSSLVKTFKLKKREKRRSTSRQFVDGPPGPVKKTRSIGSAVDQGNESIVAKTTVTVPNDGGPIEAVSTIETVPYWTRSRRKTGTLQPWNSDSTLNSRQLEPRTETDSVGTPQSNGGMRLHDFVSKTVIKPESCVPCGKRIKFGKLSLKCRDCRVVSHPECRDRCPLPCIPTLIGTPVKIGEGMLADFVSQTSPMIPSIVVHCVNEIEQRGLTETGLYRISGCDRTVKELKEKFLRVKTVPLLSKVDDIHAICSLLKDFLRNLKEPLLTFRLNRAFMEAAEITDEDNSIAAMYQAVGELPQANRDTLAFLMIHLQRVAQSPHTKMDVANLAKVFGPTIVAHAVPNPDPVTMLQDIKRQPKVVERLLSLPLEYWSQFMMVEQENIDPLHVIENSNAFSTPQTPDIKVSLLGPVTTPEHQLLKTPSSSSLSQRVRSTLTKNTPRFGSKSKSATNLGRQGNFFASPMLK

[2] = HeLa cell cytotoxicity, dose response, cytotoxicity control for MgcRacGAP inhibitor project (AID 624300); type: functional
[3] = biological target: T2, DNA repair protein RAD52 homolog (Homo sapiens, UniProt P43351); type: functional, biochemical
T2 sequence (P43351 whole entry): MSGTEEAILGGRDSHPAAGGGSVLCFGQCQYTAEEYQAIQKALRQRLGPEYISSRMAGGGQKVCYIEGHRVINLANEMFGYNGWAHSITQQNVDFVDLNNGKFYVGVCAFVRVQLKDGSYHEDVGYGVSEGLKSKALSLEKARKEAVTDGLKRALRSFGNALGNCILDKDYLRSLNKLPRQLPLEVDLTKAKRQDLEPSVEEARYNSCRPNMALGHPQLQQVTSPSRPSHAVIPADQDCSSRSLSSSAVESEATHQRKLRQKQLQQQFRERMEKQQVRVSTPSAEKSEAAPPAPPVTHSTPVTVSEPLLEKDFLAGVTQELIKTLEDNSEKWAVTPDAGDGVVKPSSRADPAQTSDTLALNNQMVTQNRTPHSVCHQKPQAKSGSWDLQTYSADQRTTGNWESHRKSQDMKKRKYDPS

Vero = Vero cell cytotoxicity, cytotoxicity control for flavivirus capping enzyme inhibitors (AID 588742); type: functional; conditions: Chlorocebus sabaeus
[4] = HEp-2 cell cytotoxicity, dose response, cytotoxicity control for RSV inhibitor project, HTS (AID 2410); type: functional; conditions: human respiratory syncytial virus
[5] = Luminescence Cell-Based Dose Retest to Confirm Inhibitors of Cancer Stem Cells. [Related pubchem assays (depositor defined):AID2717, AID2721]; type: functional; conditions: Homo sapiens
P388 = assay: cells; type: functional; conditions: Mus musculus
SN12K1 = assay: cells; type: functional; conditions: Homo sapiens
P388/ADR = assay: cells; type: functional; conditions: Mus musculus
[6] = C. albicans growth with fluconazole, confirmation, fluorescence, retest (AID 2467); type: functional, cell-based
[7] = NIH-3T3 fibroblast cytotoxicity, dose response, cytotoxicity control, cell-based, fluorescence, Alamar Blue, secondary assay (AID 2327); type: functional;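 also: NIH-3T3 mouse fibroblasts cultured with fluconazole at 8 µg/mL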
[8] = biological target: T3, Heat shock factor protein 1 (Mus musculus, UniProt P38532); assay: HSF1 potentiators in luciferase reporter cells, confirmation, cell-based, NIH3T3, luminescence, dose retest (AID 435004); type: functional;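 also: stress induced by proteasome inhibitor MG132 added 30 min after compound; luciferase reporter driven by HSF1 response element in NIH3T3 cells; actives raise luminescence as potentiators of the MG132 stress response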
T3 sequence (P38532 whole entry): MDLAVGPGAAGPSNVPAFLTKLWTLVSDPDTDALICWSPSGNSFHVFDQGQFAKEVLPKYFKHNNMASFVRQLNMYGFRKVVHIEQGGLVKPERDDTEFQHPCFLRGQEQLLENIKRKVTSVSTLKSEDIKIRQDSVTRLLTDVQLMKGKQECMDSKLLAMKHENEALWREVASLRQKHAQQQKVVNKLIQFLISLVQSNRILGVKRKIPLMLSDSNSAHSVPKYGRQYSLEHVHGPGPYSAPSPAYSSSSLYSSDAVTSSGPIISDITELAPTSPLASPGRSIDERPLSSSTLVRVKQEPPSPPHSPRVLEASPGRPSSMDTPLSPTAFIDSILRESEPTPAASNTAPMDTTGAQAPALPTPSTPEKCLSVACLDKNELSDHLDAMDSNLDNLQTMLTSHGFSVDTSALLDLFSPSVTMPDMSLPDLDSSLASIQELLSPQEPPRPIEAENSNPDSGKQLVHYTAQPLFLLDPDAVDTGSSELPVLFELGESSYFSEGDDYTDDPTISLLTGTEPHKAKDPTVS

[9] = cytotoxicity toward DRD oncogenic fibroblasts, dose response, cell-based, non-viral oncogenic, luminescence (AID 1934); type: functional; conditions: Homo sapiens
BJ [10] = assay: cytotoxicity toward BJ-TERT fibroblasts, dose response, cell-based, RAS-independent, luminescence (AID 1933); type: functional; conditions: Homo sapiens
BJ [11] = assay: cells; type: functional, cell-based; conditions: Homo sapiens
BJ [12] = assay: cytotoxicity toward BJ-TERT-LT-ST fibroblasts, dose response, cell-based, RAS-independent, luminescence (AID 1935); type: functional; conditions: Homo sapiens;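 also: BJ fibroblasts immortalized with TERT plus LT and ST oncogenes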
Protein RecA = biological target: T4, Protein RecA (Mycobacterium tuberculosis, UniProt P9WHJ3); assay: Fluorescence Cell-Free Homogeneous Dose Retest to Identify Inhibitors of RecA-Intein Splicing Activity. [Related pubchem assays (depositor defined):AID2097, AID2223, AID489010, AID492950]; type: functional
T4 sequence (P9WHJ3 whole entry): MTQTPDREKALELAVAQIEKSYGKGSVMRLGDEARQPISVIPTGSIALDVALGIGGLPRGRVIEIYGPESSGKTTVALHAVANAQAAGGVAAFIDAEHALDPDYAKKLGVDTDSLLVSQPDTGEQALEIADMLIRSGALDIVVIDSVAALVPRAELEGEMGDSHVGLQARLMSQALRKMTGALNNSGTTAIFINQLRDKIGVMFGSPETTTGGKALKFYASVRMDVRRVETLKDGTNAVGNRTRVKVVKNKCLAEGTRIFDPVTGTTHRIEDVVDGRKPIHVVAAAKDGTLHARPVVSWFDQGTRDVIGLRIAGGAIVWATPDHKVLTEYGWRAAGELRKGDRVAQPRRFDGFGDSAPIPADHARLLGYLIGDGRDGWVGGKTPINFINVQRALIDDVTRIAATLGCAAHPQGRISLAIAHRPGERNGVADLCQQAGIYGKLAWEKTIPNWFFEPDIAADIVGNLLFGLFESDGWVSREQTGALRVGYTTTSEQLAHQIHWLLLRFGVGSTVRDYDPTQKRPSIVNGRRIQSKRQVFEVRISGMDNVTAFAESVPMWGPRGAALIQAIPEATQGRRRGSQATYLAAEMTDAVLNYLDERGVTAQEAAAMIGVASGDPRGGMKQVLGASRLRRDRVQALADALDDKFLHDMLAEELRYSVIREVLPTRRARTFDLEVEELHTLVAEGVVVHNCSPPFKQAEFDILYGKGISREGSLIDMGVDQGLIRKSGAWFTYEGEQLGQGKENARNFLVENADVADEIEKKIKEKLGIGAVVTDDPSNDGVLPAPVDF

Genome polyprotein = Genome polyprotein (dengue virus type 2, UniProt P29990); assay: Dengue-2 NS5 methyltransferase inhibitors, primary screen, biochemical, confirmation dose response (AID 588689); type: functional
[13] = biological target: T5, Replicative DNA helicase DnaB (Mycobacterium tuberculosis, UniProt P9WMR3); assay: DnaB intein splicing inhibitors, dose response, biochemical, cell-free fluorescence (AID 449749); type: functional
T5 sequence (P9WMR3 whole entry): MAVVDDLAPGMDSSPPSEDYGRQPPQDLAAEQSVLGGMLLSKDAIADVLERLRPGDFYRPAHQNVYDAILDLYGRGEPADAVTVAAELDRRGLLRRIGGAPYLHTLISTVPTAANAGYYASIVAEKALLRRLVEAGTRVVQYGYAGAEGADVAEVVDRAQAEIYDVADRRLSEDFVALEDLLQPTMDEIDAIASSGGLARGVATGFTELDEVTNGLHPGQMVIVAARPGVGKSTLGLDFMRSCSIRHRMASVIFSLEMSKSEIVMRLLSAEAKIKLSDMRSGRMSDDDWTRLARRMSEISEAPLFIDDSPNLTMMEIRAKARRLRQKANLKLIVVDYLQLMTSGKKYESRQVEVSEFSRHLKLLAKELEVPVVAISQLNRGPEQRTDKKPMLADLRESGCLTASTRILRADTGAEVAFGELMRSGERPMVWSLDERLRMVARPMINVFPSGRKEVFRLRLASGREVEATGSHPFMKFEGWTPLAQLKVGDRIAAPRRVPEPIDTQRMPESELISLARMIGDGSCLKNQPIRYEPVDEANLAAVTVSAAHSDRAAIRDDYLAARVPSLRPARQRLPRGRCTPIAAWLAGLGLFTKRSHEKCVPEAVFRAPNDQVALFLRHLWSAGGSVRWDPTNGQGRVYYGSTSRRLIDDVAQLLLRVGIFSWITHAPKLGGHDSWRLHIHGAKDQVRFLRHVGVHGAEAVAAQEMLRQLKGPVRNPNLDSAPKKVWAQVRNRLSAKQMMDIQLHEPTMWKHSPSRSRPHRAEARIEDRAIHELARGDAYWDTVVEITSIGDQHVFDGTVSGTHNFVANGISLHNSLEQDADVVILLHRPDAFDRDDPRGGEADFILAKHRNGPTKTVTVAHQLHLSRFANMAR

Genome polyprotein, sequence (P29990 2492-3391 limits assumed): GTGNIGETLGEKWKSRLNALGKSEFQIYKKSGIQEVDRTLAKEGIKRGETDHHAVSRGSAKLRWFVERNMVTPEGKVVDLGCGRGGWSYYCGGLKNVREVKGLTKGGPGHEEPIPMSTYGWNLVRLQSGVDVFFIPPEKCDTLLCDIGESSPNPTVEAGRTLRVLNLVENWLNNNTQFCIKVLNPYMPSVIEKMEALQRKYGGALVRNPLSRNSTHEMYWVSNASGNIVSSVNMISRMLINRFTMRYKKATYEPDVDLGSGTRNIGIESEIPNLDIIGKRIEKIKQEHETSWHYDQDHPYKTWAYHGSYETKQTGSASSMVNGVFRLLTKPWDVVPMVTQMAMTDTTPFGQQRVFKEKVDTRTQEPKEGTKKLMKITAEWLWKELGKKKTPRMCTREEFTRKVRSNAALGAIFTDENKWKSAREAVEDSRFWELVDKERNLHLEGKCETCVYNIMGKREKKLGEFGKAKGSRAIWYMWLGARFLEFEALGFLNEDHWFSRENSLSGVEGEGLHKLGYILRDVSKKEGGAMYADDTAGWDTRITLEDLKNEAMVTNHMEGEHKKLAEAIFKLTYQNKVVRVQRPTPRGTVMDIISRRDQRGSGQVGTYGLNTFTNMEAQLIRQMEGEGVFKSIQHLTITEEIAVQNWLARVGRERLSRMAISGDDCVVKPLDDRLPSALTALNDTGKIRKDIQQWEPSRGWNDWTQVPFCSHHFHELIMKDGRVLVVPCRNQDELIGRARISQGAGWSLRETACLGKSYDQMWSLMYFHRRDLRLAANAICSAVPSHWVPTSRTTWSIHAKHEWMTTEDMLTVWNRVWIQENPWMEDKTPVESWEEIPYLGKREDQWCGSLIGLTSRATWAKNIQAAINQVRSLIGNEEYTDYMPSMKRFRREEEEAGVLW

Row | Structure (SMILES) | AC50 [3] | GI50 (P388) | GI50 (SN12K1) | GI50 (P388/ADR) | also measured
1 | O=C(c1ccccc1F)N1CCN(Cc2ccccc2F)CC1 |  |  |  |  | IC50 [1]: 182 µM (active); CC50 [2]: 100 µM (active)
2 | CCOC(=O)c1c(CNc2ccncc2)n(C)c2cc(Br)c(O)cc12 | 15.6 µM (active) |  |  |  | 
3 | Cc1cccc(Nc2nc(-c3ccc(O)cc3O)cs2)n1 |  |  |  |  | CC50 (Vero): > 40 µM (active); CC50 [4]: 43.6 µM (active); AC50 [5]: 6.88 µM (active)
4 | O=C(C[n+]1ccc2ccccc2c1)c1ccc2ccc3ccccc3c2c1 | 4.04 µM (active) |  |  |  | 
5 | CS(=O)(=O)CS(=O)(=O)OCCCl |  | 17.9 µM (inactive) | 152 µM (inactive) | 27.7 µM (inactive) | 
6 | CCn1cc(C(=O)NN)c(=O)c2cc(F)c(N3CCN(C)CC3)cc21 | 15.7 µM (active) |  |  |  | 
7 | CC(C)(C)c1ccc2c(c1)OP1(Oc3c(Cl)cc(Cl)c4cccnc34)(O2)Oc2ccc(C(C)(C)C)cc2O1 |  | 0.889 µM (active) | 6.21 µM (inactive) | 2.84 µM (inactive) | 
8 | CCCCn1c(SCC(=O)c2ccc(O)c(O)c2)nc2ccsc2c1=O |  |  |  |  | EC50 [6]: > 38 µM (not active); EC50 [7]: 12.9 µM (active); IC50 [1]: 49.7 µM (active); CC50 [2]: 100 µM (active); EC50 [8]: 31.7 µM (active)
9 | CN1CCN(CC(=O)Nc2nc(-c3c[nH]c4ccccc34)cs2)CC1 | 11.6 µM (active) |  |  |  | 
10 | COc1cc2c(cc1O)N=C[C@@H]1CC[C@@H](O)N1C2=O.COc1cc2c(cc1O)N=C[C@@H]1CC[C@H](O)N1C2=O |  | 0.582 µM (active) | 0.53 µM (active) | 0.173 µM (active) | 
11 | COc1ccc(N2CCc3c(C)nc4c(OC)cccc4c32)cc1 | 12.3 µM (active) |  |  |  | EC50 [9]: 2.68 µM (active); EC50 (BJ [10]): 3.48 µM (inconclusive); EC50 (BJ [11]): 20 µM (inconclusive); EC50 (BJ [12]): 1.26 µM (inconclusive)
12 | O=C1CCCN1CCC/N=c1/cc2n(-c3ccc(Cl)cc3)c3ccccc3nc-2cc1Nc1ccc(Cl)cc1 |  | 3.45 µM (inactive) | 9.66 µM (inactive) | 3.53 µM (inactive) | 
13 | Oc1ccc(/C=N/n2c(-c3ccco3)cs/c2=N\c2cccnc2)c(O)c1 |  |  |  |  | IC50 [1]: 43.3 µM (active); CC50 [2]: 100 µM (active)
14 | C=C1C(=O)O[C@@H]2[C@H](O)[C@@H](C)[C@@H]3C=CC(=O)[C@@]3(C)[C@@H](OC(=O)/C(C)=C/C)[C@H]12 |  | 0.0933 µM (active) | 0.34 µM (active) | 0.104 µM (active) | 
15 | COC(=O)c1c(NC(=O)/C=C/C(=O)O)sc(C)c1-c1ccc(C(C)C)cc1 |  |  |  |  | EC50 (Protein RecA): 2.4 µM (active); IC50 (Genome polyprotein): 65 µM (active); AC50 [13]: 6.48 µM (active); CC50 (Vero): > 40 µM (active)
16 | C[n+]1ccc(Nc2ccc(NC(=O)c3ccc(Nc4cc[n+](C)c5ccc([N+](=O)[O-])cc45)cc3[N+](=O)[O-])cc2)cc1 |  | 0.771 µM (active) | 23.9 µM (inactive) |  | 
